Several values for one entry are separate records, joined by “and”; a condition that tells them apart may be missing. Equal entries are not always repeated.
Tested on: not given
Assay: not given
Conditions: not given

| SMILES | melting point |
| --- | --- |
| Cc1ccc(COc2ccn(Cc3ccccc3)c(=O)c2Br)cc1 [Example 44, 1-Benzyl-3-bromo-4-[(4-methylbenzyl)oxy]pyridin-2(1H)-one] | 149 to 149.7 °C |
| CCn1ccc(OCc2ccccc2)c(Br)c1=O [Example 20, 4-(benzyloxy)-3-bromo-1-ethylpyridin-2(1H)-one] | 61.3 to 64.8 °C |
| O=c1c(Br)c(SCc2ccccc2)ccn1Cc1ccccc1 [Example 46] | 180.6 to 182.1 °C |
| Cl.O=c1c(Br)c(OCc2ccccc2)ccn1CC1CCCNC1 (centres unmarked) | 138.1 to 139.2 °C |
| O=c1cc(OCc2c(Cl)cccc2Cl)ccn1Cc1ccccc1 [Example 40, 1-Benzyl-4-[2,6-(dichlorobenzyl)oxy]pyridin-2(1H)-one] | 151.6 to 152 °C |
| Cc1ccc(Cn2ccc(OCc3ccccc3)cc2=O)cc1 [Example 1, 4-(benzyloxy)-1-(4-methylbenzyl)pyridin-2(1H)-one] | 142.8 to 143.3 °C |
| O=c1c(Br)c(OCc2ccccc2)ccn1Cc1ccc(OCc2ccccc2)cc1 [Example 12, 4-(benzyloxy)-1-[4-(benzyloxy)benzyl]-3-bromopyridin-2(1H)-one] | 137.6 to 144.3 °C |
| O=c1c(Br)c(OCc2ccccc2)ccn1CCc1cccs1 [Example 30, 4-(benzyloxy)-3-bromo-1-(2-thien-2-ylethyl)pyridin-2(1H)-one] | 128 to 129.5 °C |
| O=c1cc(OCc2ccccc2Cl)ccn1Cc1ccccc1 [Example 42, 1-Benzyl-4-[(2-chlorobenzyl)oxy]pyridin-2(1H)-one] | 124.6 to 125 °C |
| Cn1ccc(OCc2ccccc2)c(Br)c1=O [Example 23, 4-(benzyloxy)-3-bromo-1-methylpyridin-2(1H)-one] | 61.3 to 64.8 °C |
| O=c1c(Br)c(OCc2ccccc2)ccn1CCc1ccsc1 [Example 29, 4-(benzyloxy)-3-bromo-1-(2-thien-3-ylethyl)pyridin-2(1H)-one] | 134 to 134.3 °C |

Molecular target: T1, human p38 kinase alpha (Homo sapiens, UniProt Q16539)
T1 construct: The coding region of the human p38 cDNA was obtained by PCR-amplification from RNA isolated from the human monocyte cell line THP.1; GST (N); made in house; host or cells: E. coli DH10B
T1 sequence (Q16539 whole entry): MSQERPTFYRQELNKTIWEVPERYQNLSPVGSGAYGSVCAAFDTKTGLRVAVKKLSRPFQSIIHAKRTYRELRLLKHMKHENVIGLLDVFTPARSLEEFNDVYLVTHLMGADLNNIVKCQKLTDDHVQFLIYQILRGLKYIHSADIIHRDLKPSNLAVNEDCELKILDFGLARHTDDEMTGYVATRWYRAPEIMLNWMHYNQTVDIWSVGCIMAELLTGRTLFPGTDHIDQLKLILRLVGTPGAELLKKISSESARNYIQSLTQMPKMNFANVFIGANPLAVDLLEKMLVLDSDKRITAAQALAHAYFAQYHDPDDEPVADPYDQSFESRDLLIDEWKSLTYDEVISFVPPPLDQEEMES
Assay: p38 kinase in vitro assay
Assay type: biochemical
Conditions: Table I; average of n trials, n=1 if not reported; read-out: p38 Alpha IC50
Procedure: The ability of compounds to inhibit human p38 kinase alpha was evaluated using two in vitro assay methods. In the first method, activated human p38 kinase alpha phosphorylates a biotinylated substrate, PHAS-I (phosphorylated heat and acid stable protein-insulin inducible), in the presence of gamma ^32p-ATP (^32P-ATP). PHAS-I was biotinylated prior to the assay and provides a means of capturing the substrate, which is phosphorylated during the assay. p38 Kinase was activated by MKK6. Compounds were tested in 10 fold serial dilutions over the range of 100 μM to 0,001 μM using 1% DMSO. Each concentration of inhibitor was tested in triplicate.
All reactions were carried out in 96 well polypropylene plates. Each reaction well contained 25 mM HEPES pH 7.5, 10 mM magnesium acetate and 50 μM unlabeled ATP. […] Activated human p38 kinase alpha was used at 1 μg per 50 μl reaction volume representing a final concentration of 0.3 μM. Gamma ^32P-ATP was used to follow the phosphorylation of PHAS-I. ^32P-ATP has a specific activity of 3000 Ci/mmol and was used at 1.2 μCi per 50 μl reaction volume. The reaction proceeded either for one hour or overnight at 30° C.
Following incubation, 20 μl of reaction mixture was transferred to a high capacity streptavidin coated filter plate (SAM-streptavidin-matrix, Promega) prewetted with phosphate buffered saline, The transferred reaction mix was allowed to contact the streptavidin membrane of the Promega plate for 1-2 minutes. […] Filter plates were air-dried and 20 μl of scintillant was added. The plates were sealed and counted.
A second assay format was also employed that is based on p38 kinase alpha induced phosphorylation of EGFRP (epidermal growth factor receptor peptide, a 21 mer) in the presence ^33P-ATP. Compounds were tested in 10 fold serial dilutions over the range of 100 μM to 0.001 μM in 1% DMSO. Each concentration of inhibitor was tested in triplicate. Compounds were evaluated in 50 μl reaction volumes in the presence of 25 mM Hepes pH 7.5, 10 mM magnesium acetate, 4% glycerol, 0.4% bovine serum albumin, 0.4 mM DTT, 50 μM unlabeled ATP, 25 μg EGFRP (200 μM), and 0.05 μCi ^33p-ATP. Reactions were initiated by addition of 0.09 μg of activated, purified human GST-p38 kinase alpha. Activation was carried out using GST-MKK6 (5:1,p38:MKK6) for one hour at 30° C. in the presence of 50 μM ATP. Following incubation for 60 minutes at room temperature, the reaction was stopped by addition of 150 μl of AG 1×8 resin in 900 mM sodium formate buffer, pH 3.0 (1 volume resin to 2 volumes buffer). The mixture was mixed three times with pipetting and the resin was allowed to settle. A total of 50 μl of clarified solution head volume was transferred from the reaction wells to Microlite-2 plates. 150 μl of Microscint 40 was then added to each well of the Microlite plate, and the plate was sealed, mixed, and counted.

| SMILES | IC50 |
| --- | --- |
| O=c1c(Br)c(OCc2ccccc2)ccn1Cc1ccccc1F [U] | 427 nM |
| Cc1cc(OCc2ccc(F)cc2F)c(Br)c(=O)n1Cc1cccnc1 [F] | 132 nM |
| O=c1c(Br)c(OCc2ccc(F)cc2)ccn1Cc1cccc(F)c1 [BB] | 632 nM |
| N#Cc1ccc(Cn2ccc(OCc3ccccc3)c(Br)c2=O)cc1 [CC] | 536 nM |
| O=C(O)c1ccc(Cn2ccc(OCc3ccccc3)c(Br)c2=O)cc1 [T] | 423 nM |
| Cc1cccc(COc2ccn(Cc3cccc(F)c3)c(=O)c2Br)c1 [H] | 260 nM |
| COc1cccc(C)c1-n1c(C)cc(OCc2ccc(F)cc2F)c(Br)c1=O [L] | 294 nM |
| O=c1c(Br)c(OCc2ccccc2)ccn1Cc1cccc(F)c1 [J] | 700 nM |
| O=c1c(Br)c(OCc2ccc(F)cc2)ccn1Cc1ccncc1 [EE] | 572 nM |
| O=c1c(Br)c(OCc2ccccc2)ccn1Cc1ccc(Cl)cc1 [R] | 398 nM |

Same assay, conditions: Table II; several values in a cell = repeat determinations; read-out: p38A

| SMILES | IC50 |
| --- | --- |
| O=c1c(Br)c(OCc2ccc(Cl)cc2)ccn1Cc1ccc(F)cc1 [PP] | 1900 nM |
| O=c1c(Br)c(OCc2ccccc2)ccn1CCc1ccsc1 [QQQ] | 3310 nM |
| O=c1c(Br)c(OCc2ccccc2)ccn1Cc1cccc(C(F)(F)F)c1 [SSS] | 9860 nM |
| O=c1c(Br)c(OCc2ccc(F)cc2)ccn1Cc1ccc(F)cc1 [SS] | 1250 nM and 921 nM |
| O=c1cc(OCc2cccc(Cl)c2)ccn1Cc1ccccc1 [XXX] | 51500 nM |
| COc1ccc(Cn2ccc(OCc3ccc(Cl)cc3)c(Br)c2=O)cc1 [QQ] | 2410 nM |
| O=c1c(Br)c(OCc2ccc(Cl)cc2)ccn1CCc1ccccc1 [DDD] | 6630 nM |
| O=c1cc(OCc2ccccc2)ccn1Cc1ccc(F)cc1 [NNNN] | 64800 nM |
| O=c1cc(OCc2ccccc2)ccn1Cc1ccc(Cl)cc1 [GGGG] | 31900 nM |

Same assay, conditions: Table III; n = number of times assayed, n=1 if not reported; read-out: p38 Alpha IC50

| SMILES | IC50 |
| --- | --- |
| Cc1cc(OCc2c(F)cc(F)cc2F)c(Br)c(=O)n1Cc1ccncc1 [UUUU] | 192 nM |
| O=c1c(Br)c(OCc2ccc(F)cc2F)ccn1Cc1ccncc1 [SSSS] | 141 nM |
